Measurements reported in patent publication US7544703B2, “Cyclic compound having 4-pyridylalkylthio group having substituted or unsubstituted amino group introduced therein” (Santen Pharmaceutical Co., Ltd., priority 2004, dated 2009).
Where a name gives a salt, the structure may show the parent alone.

Test system: HUVEC (normal human umbilical vein endothelial cells)
Experiment: VEGF-induced HUVEC proliferation: cell proliferation inhibitory action test;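 further: each well holds 100 µL cell suspension before compound addition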
Assay type: cell-based
Conditions: 72 h, 5 μL of 20 μg/mL test compound solution per well, WST-8 absorbance at 450 nm three days after VEGF addition, read-out: Cell proliferation inhibition rate (%)
Protocol: A cell proliferation inhibitory action test of the compounds of the present invention was performed using a VEGF-induced HUVEC proliferation evaluation system (HUVEC stands for normal human umbilical vein endothelial cells), which is one of the widely-used methods of evaluating in vitro angiogenesis inhibitory effects of drugs. As one of the widely-used methods of evaluating angiogenesis inhibitory effects of drugs, a cell proliferation inhibitory action test using a VEGF-induced HUVEC proliferation reaction evaluation system has been reported in Cancer Res., 59, 99-106 (1999). According to the method described in the above-mentioned document, a cell proliferation inhibitory action test of the compounds of the present invention was performed, the cell proliferation inhibition rate was calculated, and the angiogenesis inhibitory effect of each of the compounds of the present invention was evaluated using the obtained rate as an index. Each test compound was dissolved in dimethyl sulfoxide (hereinafter abbreviated as DMSO), and the obtained solution was diluted with a commercially available phosphoric acid buffer solution (hereinafter abbreviated as PBS), whereby a 20 μg/mL test compound solution was prepared. HUVEC was suspended in a 0.5% fetal bovine serum (hereinafter abbreviated as FBS)-containing F12K medium, whereby a 2×10^4 cells/mL HUVEC suspension was prepared. VEGF was dissolved in 0.1% bovine serum albumin-containing PBS, and the obtained solution was diluted with the 0.5% FBS-containing F12K medium, whereby a 400 ng/mL VEGF solution was prepared. • 1) The HUVEC suspension was inoculated in an amount of 100 μL into each well of a 96-well plate coated with type I collagen (2×10^3 cells per well). • 2) One day after the inoculation, the test compound solution was added in an amount of 5 μL per well. • 3) One hour after the addition of the test compound solution, the VEGF solution was added in an amount of 5 μL per well. • 4) Three days after the addition of the VEGF solution, WST-8 assay kit (Dojin Chemical Co., Ltd.) was added in an amount of 10 μL per well. • 5) After 3 hours, the above-mentioned plate was attached to an absorptiometer (Multilabel Counter ARVO), and an absorbance at 450 nm of each well suspension (hereinafter referred to as test compound suspension) was measured. • 6) A test was carried out in the same manner as in the above 1) to 5) except that 1.0% DMSO was used instead of the test compound solution. The result was used as a control. Incubation was carried out under conditions of 37° C., 5% carbon dioxide and […] in an incubator throughout the above-mentioned test steps. The cell proliferation inhibition rate (%), which was used as an index of an angiogenesis inhibitory effect, was calculated according to the following calculation equation. Cell proliferation inhibition rate (%)=100−{(Absorbance of test compound suspension−A)/(absorbance of control−A)}×100 (Calculation Equation) A: Absorbance of only cell suspension (cell+medium) (Test Results and Discussion)

| Structure (SMILES) | inhibition at 20 µg/mL (stock) |
| --- | --- |
| CC(C)(C)OC(=O)Nc1cc(CSc2ncccc2C(=O)Nc2ccc(OC(F)(F)F)cc2)ccn1 [Compound 2-4, 2-(2-tert-Butoxycarbonylaminopyridin-4-ylmethylthio)-N-(4-trifluoromethoxyphenyl)pyridine-3-carboxamide] | 99% |
| CC(=O)Nc1cc(CSc2ccccc2C(=O)Nc2ccc(C(C)(C)C)cc2)ccn1 [Compound 4-44, 2-(2-Acetylaminopyridin-4-ylmethylthio)-N-(4-tert-butylphenyl)benzamide] | 85% |
| CCCNC(=O)Nc1cc(CSc2ncccc2C(=O)Nc2cc(C)cc(C)c2)ccn1 [Compound 5-1, N-(3,5-Dimethylphenyl)-2-[2-(N′-n-propylureido)pyridin-4-ylmethylthio]pyridine-3-carboxamide] | 100% |
| CNC(=O)Nc1cc(CSc2ncccc2C(=O)Nc2ccc(OC(F)F)cc2)ccn1 [Compound 9-4, N-(4-Difluoromethoxyphenyl)-2-[2-(N′-methylureido)pyridin-4-ylmethylthio]pyridine-3-carboxamide] | 100% |
| CC(C)(C)OC(=O)Nc1cc(CSc2ncccc2C(=O)Nc2ccc3c(c2)CCC3)ccn1 [Compound 2-3, 2-(2-tert-Butoxycarbonylaminopyridin-4-ylmethylthio)-N-(indan-5-yl)pyridine-3-carboxamide] | 100% |
| Cc1cc(C)cc(NC(=O)c2cccnc2SCc2ccnc(NC(=O)C(F)(F)F)c2)c1 [Compound 4-3, N-(3,5-Dimethylphenyl)-2-(2-trifluoroacetylaminopyridin-4-ylmethylthio)pyridine-3-carboxamide] | 100% |
| CN(C)CCN(C)CC(=O)NC(Sc1ncccc1C(=O)Nc1ccc(OC(F)(F)F)cc1)c1ccncc1 (centres unmarked) [Compound 17-28, 2-[2-(N-(2-Dimethylaminoethyl)-N-methylamino)acetylaminopyridin-4-ylmethylthio]-N-(4-trifluoromethoxyphenyl)pyridine-3-carboxamide] | 100% |
| Cc1cc(C)cc(NC(=O)c2cccnc2SCc2ccnc(NC(=O)C(C)C)c2)c1 [Compound 4-4, N-(3,5-Dimethylphenyl)-2-(2-isobutyrylaminopyridin-4-ylmethylthio)pyridine-3-carboxamide] | 100% |
| Cc1cc(C)cc(NC(=O)c2cccnc2SCc2ccnc(NC(=O)OC(C)(C)C)c2)c1 [Compound 2-1, 2-(2-tert-Butoxycarbonylaminopyridin-4-ylmethylthio)-N-(3,5-dimethylphenyl)pyridine-3-carboxamide] | 100% |
| Cc1cc(C)cc(NC(=O)c2cccnc2SCc2ccnc(Nc3ccccc3)c2)c1 [Compound 8-1, N-(3,5-Dimethylphenyl)-2-(2-phenylaminopyridin-4-ylmethylthio)pyridine-3-carboxamide] | 100% |
| O=C(Nc1ccc2c(c1)CCC2)c1cccnc1SCc1ccnc(N2CCOCC2)c1 [Compound 1-10, N-(Indan-5-yl)-2-(2-morpholinopyridin-4-ylmethylthio)pyridine-3-carboxamide] | 94% |
| Cc1cc(C)cc(NC(=O)c2cccnc2SCc2ccnc(NC(=O)C(C)(C)C)c2)c1 [Compound 4-5, N-(3,5-Dimethylphenyl)-2-(2-pivaloylaminopyridin-4-ylmethylthio)pyridine-3-carboxamide] | 100% |
| Cc1cc(C)cc(NC(=O)c2cccnc2SCc2ccnc(N(C)C(=O)OC(C)(C)C)c2)c1 [Compound 2-7, 2-[2-(N-tert-Butoxycarbonyl-N-methylamino)pyridin-4-ylmethylthio]-N-(3,5-dimethylphenyl)pyridine-3-carboxamide] | 52% |
| Cc1cc(C)cc(NC(=O)c2sccc2SCc2ccnc(N)c2)c1 [Compound 3-28, 3-(2-Aminopyridin-4-ylmethylthio)-N-(3,5-dimethylphenyl)thiophene-2-carboxamide] | 100% |
| Nc1cc(CSc2ccccc2C(=O)Nc2ccc(Cl)cc2)ccn1 [Compound 3-21, 2-(2-Aminopyridin-4-ylmethylthio)-N-(4-chlorophenyl)benzamide monohydrochloride] | 100% |
| Cc1cc(C)cc(NC(=O)c2cccnc2SCc2ccnc(NC(=O)Nc3ccc(Cl)cc3)c2)c1 [Compound 5-3, 2-[2-(N′-4-Chlorophenylureido)pyridin-4-ylmethylthio]-N-(3,5-dimethylphenyl)pyridine-3-carboxamide] | 100% |
| Cc1cc(C)cc(NC(=O)c2cccnc2SCc2ccnc(N(C)CCN(C)C)c2)c1 [Compound 1-3, 2-[2-(N-(2-Dimethylaminoethyl)-N-methylamino)pyridin-4-ylmethylthio]-N-(3,5-dimethylphenyl)pyridine-3-carboxamide] | 99% |
| Cc1cc(C)cc(NC(=O)c2cccnc2SCc2ccnc(NS(=O)(=O)C(F)(F)F)c2)c1 [Compound 4-6, N-(3,5-Dimethylphenyl)-2-(2-trifluoromethanesulfonylaminopyridin-4-ylmethylthio)pyridine-3-carboxamide] | 100% |
| CNC(=O)Nc1cc(CSc2ncccc2C(=O)Nc2ccc(Cl)cc2)ccn1 [Compound 9-3, N-(4-Chlorophenyl)-2-[2-(N′-methylureido)pyridin-4-ylmethylthio]pyridine-3-carboxamide] | 100% |
| CC(C)(C)OC(=O)Nc1cc(CSc2ncccc2C(=O)Nc2ccc3cn[nH]c3c2)ccn1 [Compound 2-6, 2-(2-tert-Butoxycarbonylaminopyridin-4-ylmethylthio)-N-(1H-indazol-6-yl)pyridine-3-carboxamide] | 100% |
| Cc1cc(C)cc(NC(=O)c2cccnc2SCc2ccnc(Nc3ncc(C#N)s3)c2)c1 [Compound 2-24, 2-[2-(5-Cyanothiazol-2-ylamino)pyridin-4-ylmethylthio]-N-(3,5-dimethylphenyl)pyridine-3-carboxamide] | 88% |
| NCC(=O)Nc1cc(CSc2ncccc2C(=O)Nc2ccc(OC(F)F)cc2)ccn1 [Compound 18-1, 2-(2-Aminoacetylaminopyridin-4-ylmethylthio)-N-(4-difluoromethoxyphenyl)pyridine-3-carboxamide] | 88% |
| CNC(=O)Nc1cc(CSc2ncccc2C(=O)Nc2ccc(OC(F)(F)F)cc2)ccn1 [Compound 9-2, 2-[2-(N′-Methylureido)pyridin-4-ylmethylthio]-N-(4-trifluoromethoxyphenyl)pyridine-3-carboxamide] | 100% |
| CC(C)c1cccc(NC(=O)c2cccnc2SCc2ccnc(NC(=O)OC(C)(C)C)c2)c1 [Compound 2-2, 2-(2-tert-Butoxycarbonylaminopyridin-4-ylmethylthio)-N-(3-isopropylphenyl)pyridine-3-carboxamide] | 100% |
| CC(=O)Nc1cc(CSc2ncccc2C(=O)Nc2ccc3cn[nH]c3c2)ccn1 [Compound 4-22, 2-(2-Acetylaminopyridin-4-ylmethylthio)-N-(1H-indazol-6-yl)pyridine-3-carboxamide] | 97% |
| CN(C)CCN(C)CC(=O)NC(Sc1ncccc1C(=O)Nc1ccc(OC(F)F)cc1)c1ccncc1 (centres unmarked) [Compound 17-50, N-(4-Difluoromethoxyphenyl)-2-[2-(N-(2-dimethylaminoethyl)-N-methylamino)acetylaminopyridin-4-ylmethylthio]pyridine-3-carboxamide] | 100% |
| CC(=O)Nc1cc(CSc2ncccc2C(=O)Nc2cc(C)c(O)c(C)c2)ccn1 [Compound 4-37, 2-(2-Acetylaminopyridin-4-ylmethylthio)-N-(3,5-dimethyl-4-hydroxyphenyl)pyridine-3-carboxamide] | 100% |
| Cc1cc(C)cc(NC(=O)c2cccnc2SCc2ccnc(N3CCN(C)CC3)c2)c1 [Compound 1-1, N-(3,5-Dimethylphenyl)-2-[2-(4-methylpiperazin-1-yl)pyridin-4-ylmethylthio]pyridine-3-carboxamide] | 97% |
| Nc1cc(CSc2ncccc2C(=O)Nc2ccc3c(c2)CCC3)ccn1 [Compound 3-3, 2-(2-Aminopyridin-4-ylmethylthio)-N-(indan-5-yl)pyridine-3-carboxamide monohydrochloride] | 100% |
